Experimental data taken from ChEMBL document CHEMBL5465560, “Selectivity Literature for EUbOPEN Chemogenomic Library” (2024).

Experiments:
[1] = biological target: STE20-like serine/threonine-protein kinase (Homo sapiens, UniProt Q9H2G2); experiment: Selectivity interaction (KinomeScan (DiscoverX)) EUB0000666a SLK; details: at 10 µM
[2] = Selectivity interaction (KinomeScan (DiscoverX)) EUB0000229b CDPK1; details: at 1 µM
[3] = biological target: T1, Tyrosine-protein kinase Tec (Homo sapiens) (UniProt P42680); experiment: Selectivity interaction (KinomeScan (DiscoverX)) EUB0000229b TEC; details: at 10 µM
T1 sequence (whole entry): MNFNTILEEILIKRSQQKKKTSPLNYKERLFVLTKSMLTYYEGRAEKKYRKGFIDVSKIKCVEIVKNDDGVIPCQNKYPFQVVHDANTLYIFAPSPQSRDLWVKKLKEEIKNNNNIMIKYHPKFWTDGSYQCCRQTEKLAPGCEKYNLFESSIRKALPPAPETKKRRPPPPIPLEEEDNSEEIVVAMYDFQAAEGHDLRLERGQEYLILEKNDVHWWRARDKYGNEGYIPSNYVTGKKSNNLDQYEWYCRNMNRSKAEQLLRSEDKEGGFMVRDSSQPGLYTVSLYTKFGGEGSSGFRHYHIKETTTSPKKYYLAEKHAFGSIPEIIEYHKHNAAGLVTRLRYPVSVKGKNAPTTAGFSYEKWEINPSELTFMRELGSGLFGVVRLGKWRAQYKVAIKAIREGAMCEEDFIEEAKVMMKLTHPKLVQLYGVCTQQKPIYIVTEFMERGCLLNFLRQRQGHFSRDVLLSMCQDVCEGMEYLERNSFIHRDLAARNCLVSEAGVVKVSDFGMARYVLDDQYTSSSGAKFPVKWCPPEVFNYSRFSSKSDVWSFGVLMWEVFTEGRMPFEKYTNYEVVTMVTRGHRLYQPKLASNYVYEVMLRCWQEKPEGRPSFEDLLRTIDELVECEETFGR

[4] = biological target: T2, Serine/threonine-protein kinase BRSK1 (Homo sapiens) (UniProt Q8TDC3); experiment: Selectivity interaction (Kinase panel (Invitrogen)) EUB0000639a BRSK1; details: at 200 nM
T2 sequence (whole entry): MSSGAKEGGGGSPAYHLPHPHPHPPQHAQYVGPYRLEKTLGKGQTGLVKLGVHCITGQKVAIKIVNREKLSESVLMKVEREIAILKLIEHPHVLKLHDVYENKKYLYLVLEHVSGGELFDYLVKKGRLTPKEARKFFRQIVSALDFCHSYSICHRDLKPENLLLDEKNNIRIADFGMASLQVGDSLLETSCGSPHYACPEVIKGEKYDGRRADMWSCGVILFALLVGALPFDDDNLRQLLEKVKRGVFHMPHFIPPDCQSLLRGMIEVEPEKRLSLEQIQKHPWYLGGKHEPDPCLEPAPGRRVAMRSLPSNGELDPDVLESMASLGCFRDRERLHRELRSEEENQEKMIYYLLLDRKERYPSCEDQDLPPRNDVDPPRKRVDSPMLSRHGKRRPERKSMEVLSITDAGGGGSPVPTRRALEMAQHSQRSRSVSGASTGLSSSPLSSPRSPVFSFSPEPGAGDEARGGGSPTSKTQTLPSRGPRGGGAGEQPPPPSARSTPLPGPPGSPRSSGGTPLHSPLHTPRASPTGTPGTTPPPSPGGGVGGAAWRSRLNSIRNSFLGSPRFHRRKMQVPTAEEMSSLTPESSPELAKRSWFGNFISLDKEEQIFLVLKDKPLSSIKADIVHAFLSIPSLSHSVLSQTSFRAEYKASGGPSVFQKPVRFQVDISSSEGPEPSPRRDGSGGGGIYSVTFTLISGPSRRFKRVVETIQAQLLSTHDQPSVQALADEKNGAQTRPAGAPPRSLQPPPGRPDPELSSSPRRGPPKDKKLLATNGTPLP

[5] = biological target: Calcium/calmodulin-dependent protein kinase kinase 2 (Homo sapiens) (UniProt Q96RR4); experiment: Selectivity interaction (ActivX KiNativ screen (kinase selectivity in THP-1 cell lysates)) EUB0000639a CAMKK2; type: subcellular; details: lysate
Sequence of Calcium/calmodulin-dependent protein kinase kinase 2 (Homo sapiens) (Q96RR4 2-588 limits assumed): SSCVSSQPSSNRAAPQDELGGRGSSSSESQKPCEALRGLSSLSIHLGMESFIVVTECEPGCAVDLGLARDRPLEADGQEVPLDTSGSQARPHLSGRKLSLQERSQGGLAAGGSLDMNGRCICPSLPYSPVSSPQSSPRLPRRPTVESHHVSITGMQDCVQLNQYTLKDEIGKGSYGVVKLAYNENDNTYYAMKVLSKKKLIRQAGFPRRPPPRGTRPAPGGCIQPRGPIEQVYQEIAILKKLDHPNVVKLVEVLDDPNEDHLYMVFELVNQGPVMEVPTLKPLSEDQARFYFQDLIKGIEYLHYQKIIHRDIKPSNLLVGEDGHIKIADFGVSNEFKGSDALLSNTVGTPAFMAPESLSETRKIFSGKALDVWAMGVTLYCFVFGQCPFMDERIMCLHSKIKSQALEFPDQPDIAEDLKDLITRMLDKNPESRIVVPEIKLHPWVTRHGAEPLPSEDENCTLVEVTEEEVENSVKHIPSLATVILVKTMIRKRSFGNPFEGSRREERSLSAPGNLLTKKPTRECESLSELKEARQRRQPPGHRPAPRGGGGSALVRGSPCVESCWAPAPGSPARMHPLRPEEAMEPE

[6] = biological target: T3, Protein kinase C epsilon type (Homo sapiens) (UniProt Q02156); experiment: Selectivity interaction (KinomeScan (DiscoverX)) EUB0000092b PRKCE; details: at 10 µM
T3 sequence (whole entry): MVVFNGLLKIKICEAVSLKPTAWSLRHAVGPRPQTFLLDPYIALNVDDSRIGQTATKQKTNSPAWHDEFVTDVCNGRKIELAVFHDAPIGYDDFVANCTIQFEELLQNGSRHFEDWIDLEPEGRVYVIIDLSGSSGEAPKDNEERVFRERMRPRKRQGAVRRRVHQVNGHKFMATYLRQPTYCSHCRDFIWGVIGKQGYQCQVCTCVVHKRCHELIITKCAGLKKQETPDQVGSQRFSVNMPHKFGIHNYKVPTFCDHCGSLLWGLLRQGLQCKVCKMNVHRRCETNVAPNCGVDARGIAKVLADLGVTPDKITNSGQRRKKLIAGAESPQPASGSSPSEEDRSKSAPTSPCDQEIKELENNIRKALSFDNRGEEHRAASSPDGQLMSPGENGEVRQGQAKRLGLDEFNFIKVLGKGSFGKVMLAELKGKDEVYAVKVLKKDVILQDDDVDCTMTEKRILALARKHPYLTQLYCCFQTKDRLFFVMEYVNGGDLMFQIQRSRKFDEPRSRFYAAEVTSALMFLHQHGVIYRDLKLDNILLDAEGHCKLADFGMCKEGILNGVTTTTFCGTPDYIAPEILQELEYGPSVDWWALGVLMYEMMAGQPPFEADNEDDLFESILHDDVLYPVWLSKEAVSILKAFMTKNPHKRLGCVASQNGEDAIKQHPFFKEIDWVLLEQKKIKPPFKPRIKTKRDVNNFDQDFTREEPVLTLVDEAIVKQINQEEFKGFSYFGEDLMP

[7] = biological target: Ribosomal protein S6 kinase alpha-1 (Homo sapiens, UniProt Q15418); experiment: Selectivity interaction (Ambit KINOMEscan and KiNATiv profiling in Jurkat cells) EUB0000090b RPS6KA1; type: cell-based; details: at 1 µM
Sequence of Ribosomal protein S6 kinase alpha-1 (Q15418 whole entry): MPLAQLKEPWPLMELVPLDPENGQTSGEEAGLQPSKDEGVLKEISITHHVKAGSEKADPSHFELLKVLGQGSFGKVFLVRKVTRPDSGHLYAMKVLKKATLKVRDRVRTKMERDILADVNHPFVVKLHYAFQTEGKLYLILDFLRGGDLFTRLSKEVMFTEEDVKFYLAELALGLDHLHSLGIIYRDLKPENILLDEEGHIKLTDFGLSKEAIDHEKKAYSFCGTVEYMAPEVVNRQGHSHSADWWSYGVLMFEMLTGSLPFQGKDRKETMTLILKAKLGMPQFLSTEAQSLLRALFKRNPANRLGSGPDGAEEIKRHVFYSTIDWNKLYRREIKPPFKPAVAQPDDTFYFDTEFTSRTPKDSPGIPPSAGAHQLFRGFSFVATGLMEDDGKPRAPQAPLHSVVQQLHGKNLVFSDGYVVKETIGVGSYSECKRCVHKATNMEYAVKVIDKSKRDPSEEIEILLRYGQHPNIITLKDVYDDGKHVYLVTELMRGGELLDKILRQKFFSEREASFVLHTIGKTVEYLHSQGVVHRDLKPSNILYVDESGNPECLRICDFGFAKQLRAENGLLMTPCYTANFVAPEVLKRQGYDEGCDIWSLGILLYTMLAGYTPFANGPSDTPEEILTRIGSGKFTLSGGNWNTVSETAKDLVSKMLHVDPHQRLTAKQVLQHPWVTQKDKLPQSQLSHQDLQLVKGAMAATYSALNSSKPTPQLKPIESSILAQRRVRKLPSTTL

Sequence of STE20-like serine/threonine-protein kinase (Q9H2G2 whole entry, looked up): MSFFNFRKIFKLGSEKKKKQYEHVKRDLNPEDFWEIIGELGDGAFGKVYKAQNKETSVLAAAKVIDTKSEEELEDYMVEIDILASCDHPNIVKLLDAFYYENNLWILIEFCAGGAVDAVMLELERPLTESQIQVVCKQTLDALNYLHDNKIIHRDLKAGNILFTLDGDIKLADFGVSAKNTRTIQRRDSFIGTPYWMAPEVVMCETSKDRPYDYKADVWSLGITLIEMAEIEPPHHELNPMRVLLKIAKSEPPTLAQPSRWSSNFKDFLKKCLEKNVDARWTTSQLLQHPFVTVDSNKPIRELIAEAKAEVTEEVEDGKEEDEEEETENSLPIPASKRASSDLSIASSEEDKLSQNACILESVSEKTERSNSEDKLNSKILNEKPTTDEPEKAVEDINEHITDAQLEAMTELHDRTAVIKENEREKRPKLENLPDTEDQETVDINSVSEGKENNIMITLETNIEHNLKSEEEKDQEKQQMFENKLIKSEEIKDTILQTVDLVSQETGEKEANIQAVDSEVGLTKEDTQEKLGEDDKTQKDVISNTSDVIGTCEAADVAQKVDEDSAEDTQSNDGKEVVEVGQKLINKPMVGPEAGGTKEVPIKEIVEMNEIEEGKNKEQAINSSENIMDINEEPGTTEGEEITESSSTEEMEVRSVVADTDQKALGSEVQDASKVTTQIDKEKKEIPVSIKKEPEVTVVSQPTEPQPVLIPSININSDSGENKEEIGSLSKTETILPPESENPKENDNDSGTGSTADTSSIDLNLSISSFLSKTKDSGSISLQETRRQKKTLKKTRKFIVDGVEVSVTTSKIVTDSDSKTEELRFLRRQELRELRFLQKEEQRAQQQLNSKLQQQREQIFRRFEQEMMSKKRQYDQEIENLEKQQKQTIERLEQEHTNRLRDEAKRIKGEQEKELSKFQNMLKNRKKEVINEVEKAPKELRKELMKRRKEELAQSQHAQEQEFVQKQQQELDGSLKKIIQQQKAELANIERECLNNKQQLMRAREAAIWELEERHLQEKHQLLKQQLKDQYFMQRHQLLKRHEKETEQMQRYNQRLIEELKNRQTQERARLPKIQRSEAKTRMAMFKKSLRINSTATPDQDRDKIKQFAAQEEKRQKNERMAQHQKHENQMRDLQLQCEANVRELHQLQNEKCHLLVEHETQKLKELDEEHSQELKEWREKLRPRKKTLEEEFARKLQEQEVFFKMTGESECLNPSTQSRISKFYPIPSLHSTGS

Q: Which % of control [1] does the source give for O=C(NOC[C@H](O)CO)c1ccc(F)c(F)c1Nc1ccc(I)cc1F here?
A: 93%

Q: Which results are given for COc1cc(N(C)c2ccnc3ccc(C(F)(F)F)cc23)cc(OC)c1OC?
A: % binding [2]: 74%; % binding [3]: 98%

Q: For CC[C@@H]1[C@H](F)C(=O)N[C@@H]1COc1nccc2cc(C(N)=O)c(OC)cc12 [ZIMLOVISERTIB], which % of inhibition [4] is on record?
A: 23.6%

Q: And the % of inhibition ([5]; at 0.01 µM)?
A: 5.1%

Q: What about the % of inhibition ([5]; at 0.04 µM) of the same molecule?
A: 9.8%

Q: What about the % of inhibition ([5]; at 0.2 µM) of the same molecule?
A: 8.1%

Q: And the % of inhibition ([5]; at 1 µM)?
A: 37.6%

Q: What about the % of inhibition ([5]; at 5 µM) of the same molecule?
A: 63.5%

Q: For CCC(=O)N1CCN(c2ccc(-n3c(=O)ccc4cnc5ccc(-c6cnc7ccccc7c6)cc5c43)cc2C(F)(F)F)CC1, which % of control [6] is on record?
A: 86%

Q: With CN(C)C/C=C/C(=O)Nc1ccc(C(=O)N2CCCC(Nc3ncc(Cl)c(-c4c[nH]c5ccccc45)n3)C2)cc1 (stereo unspecified) as the molecule, how does the % of control [7] read?
A: 14%
